According to patent publication US12590099B2, “Inhibitors of histone deacetylase useful for the treatment or prevention of HIV infection” (Merck Sharp & Dohme LLC, priority 2018, dated 2026):
Read-outs that look alike come from different tables or passages of the source.

Assays:
KARN cells (Jurkat 2C4) = test: cells; format: cell-based; settings: Homo sapiens, Jurkat
In short: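 Jurkat 2C4 (KARN) cells dosed with test compounds up to 40 μM final, 0.4% DMSO, overnight at 5% CO2; luciferase read by Steady-Glo luminescence after 10 min at room temperature. DMSO set as 0% and 2 μM SAHA as 100% induction; 4-parameter fit of percent activation.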

Recombinant human HDAC8 = molecular target: T1, Recombinant human HDAC8 (Homo sapiens, UniProt Q9BY41); test: Human HDAC enzyme inhibitor Fluor-de-Lys assay, HDAC8; format: biochemical
T1 construct: purchased Enzo Life Sciences BML-SE145-0100
T1 sequence (Q9BY41 1-377): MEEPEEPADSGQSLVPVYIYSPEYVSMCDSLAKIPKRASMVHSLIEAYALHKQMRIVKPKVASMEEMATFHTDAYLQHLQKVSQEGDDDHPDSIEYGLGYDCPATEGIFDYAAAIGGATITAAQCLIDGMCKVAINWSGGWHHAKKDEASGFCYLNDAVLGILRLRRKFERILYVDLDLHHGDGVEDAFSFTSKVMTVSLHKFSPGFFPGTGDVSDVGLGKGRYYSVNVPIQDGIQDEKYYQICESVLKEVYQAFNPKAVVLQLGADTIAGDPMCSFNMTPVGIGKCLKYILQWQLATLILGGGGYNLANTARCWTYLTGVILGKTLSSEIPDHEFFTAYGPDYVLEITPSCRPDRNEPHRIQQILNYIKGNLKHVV

Recombinant human HDAC1 = molecular target: T2, Recombinant human HDAC1 (Homo sapiens, UniProt Q13547); test: Human HDAC enzyme inhibitor Fluor-de-Lys assay, HDAC1; format: biochemical
T2 construct: FLAG (C); made in house
In short: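 Fluor-de-Lys format at room temperature (23° C.): compounds titrated 10-point, 1:3, preincubated with HDAC before substrate addition; HDAC1 run at 0.3 nM enzyme with 20 μM BML-KI104. Developer with excess HDAC inhibitor ends the reaction, and trypsin-liberated AMC fluorescence is the read-out.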

[1] = molecular target: T3, Recombinant human HDAC3/SMRT heterodimer (Homo sapiens, UniProt O15379); test: Human HDAC enzyme inhibitor Fluor-de-Lys assay, HDAC3/SMRT; format: biochemical
T3 construct: FLAG (C); made in house

[2] = read-out: Karn EC50 (nM) 0.1% NHS, 0.1% normal human serum, luciferase induction, 100% = 2 μM SAHA
[3] = read-out: Karn EC50 (nM) 5% NHS, 5% normal human serum, luciferase induction, 100% = 2 μM SAHA
[4] = recombinant human HDAC8, Fluor-de-Lys assay
[5] = recombinant human HDAC1, Fluor-de-Lys assay
[6] = read-out: Karn EC50 (nM) 0.1% NHS, 0.1% normal human serum
[7] = read-out: Karn EC50 (nM) 5% NHS, 5% normal human serum

T2 sequence (Q13547 whole entry): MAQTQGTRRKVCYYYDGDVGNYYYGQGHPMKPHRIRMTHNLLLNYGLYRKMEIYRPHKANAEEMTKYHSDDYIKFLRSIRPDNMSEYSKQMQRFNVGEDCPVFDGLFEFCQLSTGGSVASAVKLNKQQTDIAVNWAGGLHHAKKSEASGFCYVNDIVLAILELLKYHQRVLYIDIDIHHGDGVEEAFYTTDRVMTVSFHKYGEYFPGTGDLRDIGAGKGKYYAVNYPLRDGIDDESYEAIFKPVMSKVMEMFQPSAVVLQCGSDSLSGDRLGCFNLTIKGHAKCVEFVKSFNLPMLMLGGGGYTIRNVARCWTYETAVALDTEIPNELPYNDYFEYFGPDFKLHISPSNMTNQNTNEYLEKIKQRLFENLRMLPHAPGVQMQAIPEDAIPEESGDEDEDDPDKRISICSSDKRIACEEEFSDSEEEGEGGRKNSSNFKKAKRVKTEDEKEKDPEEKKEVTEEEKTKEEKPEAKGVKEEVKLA
T3 sequence (O15379 whole entry): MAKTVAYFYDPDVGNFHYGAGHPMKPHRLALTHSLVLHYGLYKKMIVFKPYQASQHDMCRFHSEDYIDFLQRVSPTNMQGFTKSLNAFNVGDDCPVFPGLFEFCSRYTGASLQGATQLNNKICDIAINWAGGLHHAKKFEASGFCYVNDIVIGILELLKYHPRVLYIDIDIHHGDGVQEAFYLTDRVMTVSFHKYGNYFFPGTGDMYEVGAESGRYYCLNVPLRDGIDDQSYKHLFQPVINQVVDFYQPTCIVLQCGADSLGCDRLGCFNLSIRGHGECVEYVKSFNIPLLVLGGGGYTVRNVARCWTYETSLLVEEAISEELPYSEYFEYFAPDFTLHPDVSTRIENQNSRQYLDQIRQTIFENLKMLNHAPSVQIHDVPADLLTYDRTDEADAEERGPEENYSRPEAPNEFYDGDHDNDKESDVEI
T3 sequence (Q9Y618 1-899 partner limits assumed): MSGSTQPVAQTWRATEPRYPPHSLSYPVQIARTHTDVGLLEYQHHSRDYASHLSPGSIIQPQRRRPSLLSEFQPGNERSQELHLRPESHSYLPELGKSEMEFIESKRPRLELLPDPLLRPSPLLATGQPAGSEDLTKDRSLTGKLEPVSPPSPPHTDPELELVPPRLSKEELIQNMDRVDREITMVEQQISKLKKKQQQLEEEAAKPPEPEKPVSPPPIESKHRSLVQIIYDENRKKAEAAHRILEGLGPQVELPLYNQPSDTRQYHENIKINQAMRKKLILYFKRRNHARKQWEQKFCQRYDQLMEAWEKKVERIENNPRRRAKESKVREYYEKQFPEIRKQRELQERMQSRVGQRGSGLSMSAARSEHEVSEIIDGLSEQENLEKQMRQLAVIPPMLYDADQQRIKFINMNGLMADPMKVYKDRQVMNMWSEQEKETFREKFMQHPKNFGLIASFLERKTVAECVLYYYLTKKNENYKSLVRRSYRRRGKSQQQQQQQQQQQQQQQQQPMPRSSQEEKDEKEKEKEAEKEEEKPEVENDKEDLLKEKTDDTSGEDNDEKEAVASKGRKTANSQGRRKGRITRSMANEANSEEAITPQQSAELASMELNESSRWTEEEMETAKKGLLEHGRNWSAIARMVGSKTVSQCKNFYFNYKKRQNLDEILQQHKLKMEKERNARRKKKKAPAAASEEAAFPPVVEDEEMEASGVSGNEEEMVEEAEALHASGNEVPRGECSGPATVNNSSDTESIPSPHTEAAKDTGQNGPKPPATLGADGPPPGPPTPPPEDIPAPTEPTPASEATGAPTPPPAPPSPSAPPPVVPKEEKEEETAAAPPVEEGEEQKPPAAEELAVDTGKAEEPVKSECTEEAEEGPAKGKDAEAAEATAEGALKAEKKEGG

## CCC(=O)CCCCC[C@H](NC(=O)[C@H]1CC12CCN(C)CC2)c1ncc(-c2ccc(C(F)(F)F)cc2)[nH]1 [Compound 284]
KARN cells (Jurkat 2C4); [2]
  EC50: 606 nM
KARN cells (Jurkat 2C4); [3]
  EC50: 598 nM
Recombinant human HDAC8; [4]
  IC50: 15 µM
Recombinant human HDAC1; [5]
  IC50: 0.0186 µM
[1]; recombinant human HDAC3/SMRT, Fluor-de-Lys assay
  IC50: 0.00609 µM

## CCC(=O)CCCCC[C@H](NC(=O)CC1CC2(C1)CN(C)C2)c1ncc(-c2cc3ccccc3nc2OC)[nH]1 [Compound 314]
KARN cells (Jurkat 2C4); [2]
  EC50: 131 nM
KARN cells (Jurkat 2C4); [3]
  EC50: 811 nM
Recombinant human HDAC8; [4]
  IC50: 2.57 µM
Recombinant human HDAC1; [5]
  IC50: 0.00103 µM

## CCC(=O)CCCCC[C@H](NC(=O)[C@H]1CC12CCN(C(C)C)CC2)c1ncc(-c2ccc3c(ccc(=O)n3C)c2)o1 [Compound 96]
KARN cells (Jurkat 2C4); [6]
  EC50: 1370 nM
KARN cells (Jurkat 2C4); [7]
  EC50: 1510 nM
Recombinant human HDAC8
  IC50: > 45 µM
Recombinant human HDAC1
  IC50: 0.0069 µM
[1]
  IC50: 0.0099 µM

## CCC(=O)CCCCC[C@H](NC(=O)[C@H]1CC12CCN(CC)CC2)c1ncc(-c2ccc(-c3nccs3)cc2)o1 [Compound 93]
KARN cells (Jurkat 2C4); [6]
  EC50: 688 nM
KARN cells (Jurkat 2C4); [7]
  EC50: 736 nM
Recombinant human HDAC8
  IC50: 31.8 µM
Recombinant human HDAC1
  IC50: 0.00715 µM
[1]
  IC50: 0.00576 µM

## CCC(=O)CCCCC[C@H](NC(=O)C1CC12CCN(CC)CC2)c1nc(-c2ccc(F)cc2)[nH]c1-c1ccsc1 (some centres unmarked) [Compound 250]
KARN cells (Jurkat 2C4); [2]
  EC50: 3730 nM
KARN cells (Jurkat 2C4); [3]
  EC50: 4100 nM
Recombinant human HDAC8; [4]
  IC50: 38.3 µM
Recombinant human HDAC1; [5]
  IC50: 0.0807 µM

## CCC(=O)CCCCC[C@H](NC(=O)[C@H]1CC12CCN(C)CC2)c1ncc(-c2cnc(-n3cc(C)cn3)nc2)[nH]1 [Compound 257]
KARN cells (Jurkat 2C4); [2]
  EC50: 8080 nM
KARN cells (Jurkat 2C4); [3]
  EC50: 10600 nM
Recombinant human HDAC8; [4]
  IC50: 10.4 µM
Recombinant human HDAC1; [5]
  IC50: 0.0648 µM

## CCC(=O)CCCCC[C@H](NC(=O)[C@H]1CC12CCN(C)CC2)c1ncc(-c2ccc(-n3nc(C)cc3C)cc2)[nH]1 [Compound 260]
KARN cells (Jurkat 2C4); [2]
  EC50: 717 nM
KARN cells (Jurkat 2C4); [3]
  EC50: 913 nM
Recombinant human HDAC8; [4]
  IC50: > 15 µM
Recombinant human HDAC1; [5]
  IC50: 0.0131 µM

## CCC(=O)CCCCC[C@H](NC(=O)[C@H]1CC12CCN(C)CC2)c1ncc(-c2ccc(C(=O)NC3CCOC3)cc2)[nH]1 (some centres unmarked) [Compound 258]
KARN cells (Jurkat 2C4); [2]
  EC50: 7440 nM
KARN cells (Jurkat 2C4); [3]
  EC50: 7840 nM
Recombinant human HDAC8; [4]
  IC50: 16.4 µM
Recombinant human HDAC1; [5]
  IC50: 0.00782 µM

## CCC(=O)CCCCC[C@H](NC(=O)[C@H]1CC12CCN(C)CC2)c1ncc(-c2ccnc(N3CCOCC3)c2F)[nH]1 [Compound 261]
KARN cells (Jurkat 2C4); [2]
  EC50: 1380 nM
KARN cells (Jurkat 2C4); [3]
  EC50: 1500 nM
Recombinant human HDAC8; [4]
  IC50: 4.59 µM
Recombinant human HDAC1; [5]
  IC50: 0.0252 µM

## CCC(=O)CCCCC[C@H](NC(=O)[C@H]1CC12CCN(C)CC2)c1ncc(-c2cn(C)c3ccccc23)[nH]1 [Compound 264]
KARN cells (Jurkat 2C4); [2]
  EC50: 78 nM
KARN cells (Jurkat 2C4); [3]
  EC50: 143 nM
Recombinant human HDAC8; [4]
  IC50: 1.14 µM
Recombinant human HDAC1; [5]
  IC50: 0.00179 µM

## CCC(=O)CCCCC[C@H](NC(=O)[C@H]1CC12CCN(C)CC2)c1nnc(-c2cc3ccccc3nc2OC)o1 [Compound 306]
KARN cells (Jurkat 2C4); [2]
  EC50: 690 nM
KARN cells (Jurkat 2C4); [3]
  EC50: 691 nM
Recombinant human HDAC8; [4]
  IC50: > 45 µM
Recombinant human HDAC1; [5]
  IC50: 0.0129 µM

## CCC(=O)CCCCC[C@H](NC(=O)[C@H]1CC12CCN(C(C)C)CC2)c1ncc(-c2cc3ccccc3nc2OC)o1 [Compound 99]
KARN cells (Jurkat 2C4); [6]
  EC50: 162 nM
KARN cells (Jurkat 2C4); [7]
  EC50: 310 nM
Recombinant human HDAC8
  IC50: 32.9 µM
Recombinant human HDAC1
  IC50: 0.00355 µM

## CCC(=O)CCCCC[C@H](NC(=O)[C@H]1CC12CN(C)C2)c1ncc(-c2cc3ccc(C)nc3cc2OC)o1 (single isomer, unassigned) [Compound 230]
KARN cells (Jurkat 2C4); [2]
  EC50: 88 nM
KARN cells (Jurkat 2C4); [3]
  EC50: 83 nM
Recombinant human HDAC8; [4]
  IC50: > 0.9 µM
Recombinant human HDAC1; [5]
  IC50: 0.0004 µM

## CCC(=O)CCCCC[C@H](NC(=O)[C@@H]1CC12CCN(C)CC2)c1nnc(-c2cc3ccccc3nc2OC)o1 [Compound 305]
KARN cells (Jurkat 2C4); [2]
  EC50: 2200 nM
KARN cells (Jurkat 2C4); [3]
  EC50: 3090 nM
Recombinant human HDAC8; [4]
  IC50: > 45 µM
Recombinant human HDAC1; [5]
  IC50: 0.0473 µM

## CCC(=O)CCCCC[C@H](NC(=O)[C@H]1CC12CCN(C)CC2)c1ncc(-c2ccc(C)nc2OC)[nH]1 [Compound 268]
KARN cells (Jurkat 2C4); [2]
  EC50: 205 nM
KARN cells (Jurkat 2C4); [3]
  EC50: 330 nM
Recombinant human HDAC8; [4]
  IC50: 6.08 µM
Recombinant human HDAC1; [5]
  IC50: 0.00389 µM

## CCC(=O)CCCCC[C@H](NC(=O)C1CC12CCN(CC)CC2)c1nc(-c2ccc(F)cc2)[nH]c1-c1cnn(C)c1 (some centres unmarked) [Compound 248]
KARN cells (Jurkat 2C4); [2]
  EC50: 183 nM
KARN cells (Jurkat 2C4); [3]
  EC50: 429 nM
Recombinant human HDAC8; [4]
  IC50: 22.3 µM
Recombinant human HDAC1; [5]
  IC50: 0.00584 µM

## CCC(=O)CCCCC[C@H](NC(=O)[C@H]1CC12CCN(C)CC2)c1ncc(-c2cnc3cccnc3c2)[nH]1 [Compound 259]
KARN cells (Jurkat 2C4); [2]
  EC50: 7930 nM
KARN cells (Jurkat 2C4); [3]
  EC50: 8180 nM
Recombinant human HDAC8; [4]
  IC50: 6.14 µM
Recombinant human HDAC1; [5]
  IC50: 0.0238 µM
